Source: publication PMC8837726 (Chirality, 2021)
Like-named read-outs stand apart in the source and are kept apart here.

Columns and labels:
in vitro [1] = conditions: human, hNCI-H716 colorectal adenocarcinoma cells
in vitro [2] = conditions: mouse, mSTC-1 cells
[3] = tested on: GLP-1 release from hNCI-H716 colorectal adenocarcinoma cell line; test: CRC EC50 in GLP-1 release from hNCI-H716 cells; type: cell-based; conditions: Homo sapiens, read-out: hNCI-H716 GLP1 Sec CRC EC50
[4] = tested on: GLP-1 secretion from mSTC-1 cells; test: Concentration-response curve; type: cell-based, mouse
[5] = tested on: GLP-1 secretion from mouse secretin tumor (mSTC-1) intestinal enteroendocrine cells; test: ELISA primary assay: GLP-1 secretion from mSTC-1 cells, percent stimulation; type: cell-based; conditions: for mSTC-1 GLP1 Sec %Stim@2 μM: 2 μM test compound; for mSTC-1 GLP1 Sec %Stim@2 μM / mSTC-1 GLP1 Sec %Stim@20 μM: mSTC-1 cells, ELISA; for mSTC-1 GLP1 Sec %Stim@20 μM: 20 μM test compound; for activation at 20 µM: Mus musculus, read-out: mSTC-1 GLP1 Sec %Stim@20 μM
[6] = Mus musculus, read-out: mSTC-1 GLP1 Sec CRC EC50, mSTC-1 cells, concentration-response curve
[7] = read-out: mSTC-1 GLP1 Sec CRC EC50, mSTC-1 cells, concentration-response curve

SMILES	EC50 (in vitro [1]) [µM]	EC50 (in vitro [2]) [µM]	EC50 [3] [µM]	EC50 [4, 6] [µM]	EC50 [4, 7] [µM]	mSTC-1 GLP1 Sec %Stim@2 μM [5] [%]	mSTC-1 GLP1 Sec %Stim@20 μM [5] [%]	activation at 20 µM [5] [%]
COc1ccc2c(c1)[C@@H](NC(=O)OCc1ccccc1)[C@H](C)[C@@H](c1ccccc1)N2 [Compound 5a, benzyl (2S,3R,4S)-6-methoxy-3-methyl-2-phenyl-1,2,3,4-tetrahydroquinolin-4-ylcarbamate]	> 40	> 40	> 40	< 10	5.3	2	68	–
COc1ccc2c(c1)[C@@H](NC(=O)OCc1ccccc1)[C@H](C)[C@@H](C(C)C)N2 [Compound 5b, Benzyl ((2R,3R,4S)-2-isopropyl-6-methoxy-3-methyl-1,2,3,4-tetrahydroquinolin-4-yl)carbamate]	> 40	> 40	> 40	10.8	–	0	98	–
CC[C@H]1Nc2ccc(NC(=O)OC(C)(C)C)cc2[C@@H](NC(=O)OCc2ccccc2)[C@@H]1C [Compound 5e, Benzyl tert-butyl ((2R,3R,4S)-2-ethyl-3-methyl-1,2,3,4-tetrahydroquinoline-4,6-diyl)dicarbamate]	–	–	–	–	–	–	–	0
COc1ccc2c(c1)[C@@H](NC(=O)OCc1ccccc1)[C@H](C)[C@@H](c1cccnc1)N2 [Compound 5f, Benzyl (2S,3R,4S)-6-methoxy-3-methyl-2-(pyridin-3-yl)-1,2,3,4-tetrahydroquinolin-4-ylcarbamate]	–	–	–	–	–	0	22	–
COc1ccc2c(c1)[C@@H](NC(=O)OCc1ccccc1)[C@H](C)[C@@H](c1ccccc1)N2Cc1cccc(F)c1 [Compound 6a, Benzyl(2S,3S,4S)-1-(3-fluorobenzyl)-6-methoxy-3-methyl-2phenyl-1,2,3,4-tetrahydroquinolin-4-ylcarbamate]	> 40	> 40	> 40	> 40	–	8	40	–
COc1ccc2c(c1)[C@@H](NC(=O)OCc1ccccc1)[C@H](C)[C@@H](c1ccccc1)N2Cc1ccccn1 [Compound 6c, Benzyl (2S,3S,4S)-6-methoxy-3-methyl-2-phenyl-1-(pyridin-2-ylmethyl)-1,2,3,4-tetrahydroquinolin-4-ylcarbamate]	–	–	–	–	–	–	–	0
COc1ccc2c(c1)[C@@H](NC(=O)OCc1ccccc1)[C@H](C)[C@@H](c1ccccc1)N2C(=O)NC(C)C [Compound 6g, Benzyl ((2S,3S,4S)-1-(isopropylcarbamoyl)-6-methoxy-3-methyl-2-phenyl-1,2,3,4-tetrahydroquinolin-4-yl)carbamate]	–	–	–	–	–	–	–	0
COc1ccc2c(c1)[C@@H](NCc1nccs1)[C@H](C)[C@@H](c1ccccc1)N2C(=O)NC(C)C [Compound 8d, (2S,3S,4S)-N-Isopropyl-6-methoxy-3-methyl-2-phenyl-4-((thiazol-2-ylmethyl)amino)-3,4-dihydroquinoline-1(2H)-carboxamide]	> 40	> 40	> 40	> 40	–	0	28	–
COc1ccc2c(c1)[C@@H](NCc1ccccn1)[C@H](C)[C@@H](c1ccccc1)N2C(=O)NC(C)C [Compound 8e, (2S,3S,4S)-N-isopropyl-6-methoxy-3-methyl-2-phenyl-4-((pyridin-2-ylmethyl)amino)-3,4-dihydroquinoline-1(2H)-carboxamide]	–	–	–	–	–	–	–	0
COc1ccc2c(c1)[C@@H](NC(=O)c1c(C)noc1C)[C@H](C)[C@@H](c1ccccc1)N2C(=O)NC(C)C [Compound 8f, N-((2S,3S,4S)-1-(Isopropylcarbamoyl)-6-methoxy-3-methyl-2-phenyl-1,2,3,4-tetrahydroquinolin-4-yl)-3,5-dimethylisoxazole-4-carboxamide]	–	–	–	–	–	–	–	0
COc1ccc2c(c1)[C@@H](NC(C)=O)[C@H](C)[C@@H](c1ccccc1)N2C(=O)Nc1ccc(C(F)(F)F)cc1 [Compound 8i, (2S,3S,4S)-4-Acetamido-6-methoxy-3-methyl-2-phenyl-N-(4-(trifluoromethyl)phenyl)-3,4-dihydroquinoline-1(2H)-carboxamide]	–	–	–	–	–	–	–	0
COc1ccc2c(c1)[C@@H](NC(=O)c1c(C)noc1C)[C@H](C)[C@@H](c1ccccc1)N2Cc1cccc(F)c1 [Compound 8j, N-((2S,3S,4S)-1-(3-Fluorobenzyl)-6-methoxy-3-methyl-2-phenyl-1,2,3,4-tetrahydroquinolin-4-yl)-3,5-dimethylisoxazole-4-carboxamide]	–	–	–	–	–	–	–	0
COc1ccc2c(c1)[C@@H](NS(C)(=O)=O)[C@H](C)[C@@H](c1ccccc1)N2Cc1cccc(F)c1 [Compound 8k, N-((2S,3R,4S)-1-(3-Fluorobenzyl)-6-methoxy-3-methyl-2-phenyl-1,2,3,4-tetrahydroquinolin-4-yl)methanesulfonamide]	> 40	> 40	> 40	< 10	8.3	0	53	–
CC[C@H]1Nc2ccc(OC)cc2[C@@H](NS(C)(=O)=O)[C@@H]1C [Compound 8l, N-((2R,3R,4S)-2-Ethyl-6-methoxy-3-methyl-1,2,3,4-tetrahydroquinolin-4-yl)methanesulfonamide]	–	–	–	–	–	–	–	0
COc1ccc2c(c1)[C@@H](NS(C)(=O)=O)[C@H](C)[C@@H](C(C)C)N2 [Compound 8m, N-((2R,3R,4S)-2-Isopropyl-6-methoxy-3-methyl-1,2,3,4-tetrahydroquinolin-4-yl)methanesulfonamide]	–	–	–	–	–	–	–	0
CC[C@H]1Nc2ccc(OC)cc2[C@@H](NCc2nccs2)[C@@H]1C [Compound 8n, (2R,3R,4S)-2-Ethyl-6-methoxy-3-methyl-N-(thiazol-2-ylmethyl)-1,2,3,4-tetrahydroquinolin-4-amine]	> 40	> 40	> 40	26.1	–	0	49	–
COc1ccc2c(c1)[C@@H](NCc1nccs1)[C@H](C)[C@@H](C(C)C)N2 [Compound 8o, (2R,3R,4S)-2-Isopropyl-6-methoxy-3-methyl-N-(thiazol-2-ylmethyl)-1,2,3,4-tetrahydroquinolin-4-amine]	> 40	> 40	> 40	16.9	–	0	61	–
COc1ccc2c(c1)[C@@H](N(Cc1nccs1)Cc1nccs1)[C@H](C)[C@@H](C(C)C)N2 [Compound 8p, (2R,3R,4S)-2-Isopropyl-6-methoxy-3-methyl-N,N-bis(thiazol-2-ylmethyl)-1,2,3,4-tetrahydroquinolin-4-amine]	> 40	> 40	> 40	21.9	–	0	80	–
CC[C@H]1Nc2ccc(NC(C)=O)cc2[C@@H](NS(C)(=O)=O)[C@@H]1C [Compound 8q, N-((2R,3R,4S)-2-Ethyl-3-methyl-4-(methylsulfonamido)-1,2,3,4-tetrahydroquinolin-6-yl)acetamide]	–	–	–	–	–	0	18	–
C[C@@H]1[C@@H](c2ccccc2)Nc2ccc(-c3ccccc3)cc2[C@H]1NC(=O)OCc1ccccc1 [Compound 9, Benzyl (2S,3R,4S)-3-methyl-2,6-diphenyl-1,2,3,4-tetrahydroquinolin-4-ylcarbamate]	> 40	> 40	> 40	2.2	–	82	99	–
